Measured values published in patent US8030443B2, “Squamous cell carcinoma antigen-derived peptide binding to HLA-A24 molecule” (Kurume University, priority 2005, dated 2011).

System: PBMCs from HLA-A24^+ cancer patients and HDs
Test: Induction of peptide-specific CTLs from PBMCs, IFN-γ ELISA against peptide-pulsed C1R-A24 cells
Type: cell-based, human
Conditions: for Total: healthy donors with induction of peptide-specific CTLs / donors tested: 8 HLA-A24^+ healthy donors; for Total: healthy donors with induction of peptide-specific CTLs / donors tested / Total: cancer patients with induction of peptide-specific CTLs / patients tested: positive when more than 50 pg/ml IFN-γ with p<0.05; for Total: cancer patients with induction of peptide-specific CTLs / patients tested: 20 HLA-A24^+ cancer patients; for IFN-γ Production: HIV peptide background subtracted, only significant values shown, — otherwise
Method: PBMCs from HLA-A24^+ cancer patients and HDs were used for the CTL induction assay. For the induction of peptide-specific CTLs, PBMCs (1.5×10^5 cells/well) were incubated with 10 μg/ml of each peptide in four different wells of a 96-well microculture plate (Nunc) in 200 μl of culture medium containing interleukin (IL)-2, as reported previously (Non-Patent Literature 18). Every 3 or 4 days, half the culture medium was removed and replaced with new medium containing the corresponding peptide (20 μg/ml) and 100 U/ml IL-2. On the 14th day, the cells from each well were independently harvested, washed, separated into four wells, and tested for their ability to produce interferon (IFN)-γ in response to C1R-A24 cells pulsed with a corresponding peptide or a negative control HIV peptide in the duplicate assays. C1R-A24 is an HLA-A2402-expressing subline of C1R lymphoma (Dr. M. Takiguchi, Kumamoto University, Japan). After an 18-h incubation of C1RA-24, the supernatant was collected, and the level of IFN-γ was determined by ELISA.
Whether or not the SCCA107, SCCA112, SCCA215, and SCCA286 peptides had the potential to induce peptide-specific CTLs from the PBMCs of 20 HLA-A24^+ cancer patients and 8 HLA-A24^+ healthy donors was investigated. The group of twenty cancer patients consisted of 4 esophageal SCC patients, 4 cervical SCC patients, 4 lung cancer patients (2 adenocarcinomas, one small cell carcinoma, and one squamous cell carcinoma), 4 gastric adenocarcinoma patients, and 4 colon adenocarcinoma patients. The assay was carried out in quadruplicate. The cultured cells in one well were separated into 4 wells, and two wells were used for the SCCA peptide-pulsed C1R-A24 cells, and the other two were used for the HIV peptide-pulsed C1R-A24 cells.

Row | Sequence | Total: healthy donors with induction of peptide-specific CTLs / donors tested | Total: cancer patients with induction of peptide-specific CTLs / patients tested | Total: cancer patients with induction of peptide-specific CTLs / patients tested (listed as SCCA107) | IFN-γ Production (PBMCs of HLA-A24^+ healthy donor 7) | IFN-γ Production (PBMCs of HLA-A24^+ patient 2, Esophagus) | IFN-γ Production (PBMCs of HLA-A24^+ patient 6, Cervix of uterus) | IFN-γ Production (PBMCs of HLA-A24^+ patient 13, Stomach) | Total: cancer patients with induction of peptide-specific CTLs / patients tested (listed as SCCA286) | IFN-γ Production (PBMCs of HLA-A24^+ patient 4, Esophagus) | IFN-γ Production (PBMCs of HLA-A24^+ patient 7, Cervix of uterus)
1 | LFGEKTYLFL (SCCA 107-116 peptide) [SCCA-derived peptide, position 107-116] | 1/8 | 3/20 | 3 of 20 | 259 pg/mL | 84 pg/mL | 105 pg/mL | 500 pg/mL |  |  | 
2 | RFKVEESYDL (SCCA 286-295 peptide) [SCCA-derived peptide, position 286-295] | 0/8 | 3/20 |  |  |  |  |  | 3 of 20 | 97 pg/mL | 169 pg/mL
